According to article PMC3038857, “Using Nuclear Receptor Activity to Stratify Hepatocarcinogens” (PLoS ONE, 2011):
Read-outs that look alike come from different tables or passages of the source.

Assays:
Rat Liver [1] = conditions: ref ToxRefDB, cited from earlier work
ABCB1 = experiment: CLZD_ABCB1: Change in expression of ABCB1 (primary human hepatocytes); type: cell-based; conditions: 24 hr
Description: (§1) This is a collection of multiplexed gene expression assays focused on Phase I and II xenobiotic metabolizing enzymes and transporters. Human primary cell cultures were treated with chemicals at 5 concentrations (0.004-40 [drawing 42] M) for 6, 24 and 48 hr. Concentration- and time-response profiles of chemicals were measured by the expression of key nuclear receptor target genes, activities of CYP1A enzymes (EROD), and cell morphology. Fourteen gene targets were monitored by quantitative nuclease protection assay including: six representative cytochrome P-450 genes, four hepatic transporters, three Phase II conjugating enzymes, and one endogenous metabolism gene involved in cholesterol synthesis. The target genes associated with nuclear receptor pathways are as follows: [drawing 43] and [drawing 44] with [drawing 45]; [drawing 46] , [drawing 47] , [drawing 48] , [drawing 49] , [drawing 50] and [drawing 51] with [drawing 52]; [drawing 53] , [drawing 54] , [drawing 55] and [drawing 56] with [drawing 57]; [drawing 58] with [drawing 59]; and [drawing 60] with [drawing 61] . Assays were run in primary human hepatocyte cultures by CellzDirect Invitrogen Inc. (Durham, NC), in collaboration with EPA.
(§2) Multiplexed Gene Expression in Human Primary Hepatocytes: This is a collection of multiplexed gene expression assays focused on Phase I and II metabolic enzymes and transporters. […] Fourteen gene targets were monitored by quantitative nuclease protection assay: six representative cytochrome P450 genes, four hepatic transporters, three Phase II conjugating enzymes, and one endogenous metabolism gene involved in cholesterol synthesis. Cells were exposed at 5 concentrations (0.004-40 µM) for 6, 24 or 48 hr. Gene targets are sentinels for five nuclear receptor signaling pathways: AhR, CAR, PXR, FXR, and PPARα. All gene are associated with nuclear receptor pathways: CYP1A1 and CYP1A2 with AHR; ABCB1, ABCG2, CYP2B6, CYP2C9, CYP2C19 and UGT1A1 with CAR; CYP3A4, GSTA2, SLCO1B1 and SULT2A1 with PXR; HMGCS2 with PPARA; and ABCB11 with FXR. […] Detailed description of the methods, data and analysis methods for this dataset will be presented in a separate publication.

PXR (NR1I2) = target: T1, PXR (NR1I2) (Homo sapiens, UniProt O75469); experiment: ATG_PXRE_CIS: Factorial reporter gene assay (HepG2); type: cell-based; design: endogenous in cells; host or cells: HepG2
T1 sequence (O75469 1-434): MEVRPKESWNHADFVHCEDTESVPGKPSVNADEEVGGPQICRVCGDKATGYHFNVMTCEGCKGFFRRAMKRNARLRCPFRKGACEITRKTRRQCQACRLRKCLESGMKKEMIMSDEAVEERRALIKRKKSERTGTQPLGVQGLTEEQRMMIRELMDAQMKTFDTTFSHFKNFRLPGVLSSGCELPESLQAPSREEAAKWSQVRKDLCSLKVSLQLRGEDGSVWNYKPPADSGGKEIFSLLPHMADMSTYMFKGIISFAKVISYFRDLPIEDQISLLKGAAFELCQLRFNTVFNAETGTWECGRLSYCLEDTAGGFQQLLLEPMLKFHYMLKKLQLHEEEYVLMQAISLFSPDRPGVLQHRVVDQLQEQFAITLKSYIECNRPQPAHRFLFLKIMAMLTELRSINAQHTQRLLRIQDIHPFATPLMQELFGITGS
In short: (§3)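 Seven concentrations per chemical, three-fold dilutions down from the MTC, were tested in HepG2 hepatoma cells. Those cells carried a multiple reporter transcription unit library, read either as cis transcription-factor-site reporters or as a trans mammalian one-hybrid panel for nuclear receptors.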

ABCB11 = experiment: CLZD_ABCB11: Change in expression of ABCB11 (primary human hepatocytes); type: cell-based; conditions: 24 hr
Description: as §1, §2

CYP1A1 = experiment: CLZD_CYP1A1: Change in expression of CYP1A1 (primary human hepatocytes); type: cell-based; conditions: 24 hr
In short: (§4)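 Primary human hepatocyte cultures were exposed to test chemicals at 5 concentrations (0.004-40 µM) for 6, 24 or 48 hr.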

CAR (NR1I3) = target: T2, CAR (NR1I3) (Homo sapiens, UniProt Q14994); experiment: ATG_PBREM_CIS: Factorial reporter gene assay (HepG2); type: cell-based; design: endogenous in cells; host or cells: HepG2
T2 sequence (Q14994 1-352): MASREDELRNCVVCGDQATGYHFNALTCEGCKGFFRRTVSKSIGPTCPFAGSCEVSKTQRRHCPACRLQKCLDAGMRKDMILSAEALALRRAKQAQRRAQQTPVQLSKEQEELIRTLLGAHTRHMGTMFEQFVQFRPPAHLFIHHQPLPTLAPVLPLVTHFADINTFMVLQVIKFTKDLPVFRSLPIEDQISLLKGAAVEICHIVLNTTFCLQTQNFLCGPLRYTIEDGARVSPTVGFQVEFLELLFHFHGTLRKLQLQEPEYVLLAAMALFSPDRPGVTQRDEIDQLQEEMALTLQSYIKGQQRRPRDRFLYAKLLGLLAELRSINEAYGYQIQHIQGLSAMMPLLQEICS
Description: (§5) A multiple reporter transcription unit (MRTU) library consisting of 48 transcription factor binding sites was transfected into the HepG2 human liver hepatoma cell line. In addition to the cis-acting reporter genes (CIS), a modification of the approach was used to generate a trans-system (TRANS) with a mammalian one-hybrid assay consisting of an additional 25 MRTU library reporting the activity of nuclear receptor super-family members. […] These assays were performed by Attagene Inc. (Morrisville NC) under contract to EPA.
(§6) In addition to the cis-acting reporter genes (CIS), a modification of the approach was used to generate a trans-system (TRANS) with a mammalian one-hybrid assay consisting of an additional 25 MRTU library reporting the activity of nuclear receptor super-family members. […] Chemicals were then tested in the CIS and TRANS assays at seven concentrations starting at the MTC and followed by three-fold serial dilutions. These assays were performed by Attagene Inc. (Morrisville NC) under contract to EPA. Detailed description of the methods, data and analysis methods for this dataset will be presented in a separate publication.

Rat Liver [2] = conditions: ref ToxRefDB, cited from earlier work; remark: listed apart in the source
CYP1A2 = experiment: CLZD_CYP1A2: Change in expression of CYP1A2 (primary human hepatocytes); type: cell-based; conditions: 24 hr
In short: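 Read-out: mRNA change by multiplexed quantitative nuclease protection assay. Primary human hepatocytes; 5 concentrations, 0.004-40 µM; exposures 6, 24, 48 hr.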

CYP2B6 = experiment: CLZD_CYP2B6: Change in expression of CYP2B6 (primary human hepatocytes); type: cell-based; conditions: 24 hr
In short: as §4

Rat Liver [3] = conditions: ref ToxRefDB, cited from earlier work; remark: listed apart in the source
[4] = target: T3, AHR (aryl hydrocarbon receptor) (Homo sapiens, UniProt P35869); experiment: ATG_Ahr_CIS: Factorial reporter gene assay (multiplexed transcription reporter, HepG2); type: cell-based; conditions: HepG2 reporter
T3 construct: endogenous in cells; host or cells: HepG2
T3 sequence (P35869 11-848): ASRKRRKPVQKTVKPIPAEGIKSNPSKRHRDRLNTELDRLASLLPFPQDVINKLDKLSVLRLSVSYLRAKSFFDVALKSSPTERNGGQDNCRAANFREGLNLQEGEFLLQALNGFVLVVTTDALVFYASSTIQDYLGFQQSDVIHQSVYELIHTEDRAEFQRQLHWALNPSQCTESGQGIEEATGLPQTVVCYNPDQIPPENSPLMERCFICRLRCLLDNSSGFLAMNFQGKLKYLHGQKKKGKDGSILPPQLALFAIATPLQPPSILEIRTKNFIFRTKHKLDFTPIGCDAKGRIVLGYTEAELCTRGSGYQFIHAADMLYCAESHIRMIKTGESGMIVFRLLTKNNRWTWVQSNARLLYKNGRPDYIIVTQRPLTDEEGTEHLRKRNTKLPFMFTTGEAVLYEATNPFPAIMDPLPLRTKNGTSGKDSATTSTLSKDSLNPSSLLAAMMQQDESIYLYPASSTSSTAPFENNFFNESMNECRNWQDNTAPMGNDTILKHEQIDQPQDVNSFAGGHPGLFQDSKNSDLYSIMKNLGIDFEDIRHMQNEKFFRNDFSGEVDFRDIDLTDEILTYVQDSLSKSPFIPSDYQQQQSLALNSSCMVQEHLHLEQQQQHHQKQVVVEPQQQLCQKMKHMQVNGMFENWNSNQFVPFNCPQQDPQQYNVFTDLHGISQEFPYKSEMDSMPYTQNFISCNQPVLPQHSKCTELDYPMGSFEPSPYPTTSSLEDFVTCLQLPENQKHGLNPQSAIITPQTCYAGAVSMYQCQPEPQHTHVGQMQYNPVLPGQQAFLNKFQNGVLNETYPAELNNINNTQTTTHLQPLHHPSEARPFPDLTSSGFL
In short: as §3

CYP3A4 = experiment: CLZD_CYP3A4: Change in expression of CYP3A4 (primary human hepatocytes); type: cell-based; conditions: 24 hr
In short: as §4

Mouse Liver = conditions: chronic mouse study, liver; ref ToxRefDB; cited from earlier work
LXRa (NR1H3) = target: T4, LXRa (NR1H3) (Homo sapiens, UniProt Q13133); experiment: ATG_LXRa_TRANS: Factorial reporter gene assay (HepG2); type: cell-based; conditions: HepG2
T4 construct: expressed in transfected cells; host or cells: HepG2
T4 sequence (Q13133 1-447): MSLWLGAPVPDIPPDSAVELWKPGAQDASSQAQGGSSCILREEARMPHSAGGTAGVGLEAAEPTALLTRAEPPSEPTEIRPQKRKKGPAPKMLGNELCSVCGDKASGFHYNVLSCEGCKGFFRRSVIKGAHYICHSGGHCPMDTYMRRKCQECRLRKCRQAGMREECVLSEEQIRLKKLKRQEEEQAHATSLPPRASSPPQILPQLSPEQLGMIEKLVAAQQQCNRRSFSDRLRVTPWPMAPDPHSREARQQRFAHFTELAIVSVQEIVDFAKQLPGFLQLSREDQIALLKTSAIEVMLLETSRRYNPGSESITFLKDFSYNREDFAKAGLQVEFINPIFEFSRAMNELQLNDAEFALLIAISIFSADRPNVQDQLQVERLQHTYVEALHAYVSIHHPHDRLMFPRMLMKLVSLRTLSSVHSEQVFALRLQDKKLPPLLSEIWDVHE
Description: as §5, §6

LXRa (NR1H2) = experiment: NCGC_LXR_Agonist: GAL4 BLAM Reporter gene assay: LXRa; type: cell-based, human; conditions: agonist mode
Description: These assays measure binding constants and enzyme inhibition values for nuclear receptors. The targets include [drawing 67] , [drawing 68] , [drawing 69] , [drawing 70] , [drawing 71] , [drawing 72] , [drawing 73] , [drawing 74] , [drawing 75] and [drawing 76] . Each of the nuclear receptor targets was measured in agonist mode. Assays were run at the NIH Chemical Genomics Center (Rockville, MD).
Cell-based HTS Assays: These assays measuring binding constants and enzyme inhibition values for nuclear receptors. The targets include AR, ER, FXR, LXR, PPARα, PPARδ, PPARγ, RXRα, RXRβ and PXR. Each of the nuclear receptor targets was measured in both agonist and antagonist mode, but the antagonist data is still undergoing analysis due to possible interference between cytotoxicity and assay activity, so antagonist mode data were not used in the present analysis. Assays were run at the NIH Chemical Genomics Center (Rockville, MD) as part of the Tox21 collaboration. […] The R^2 was required to be ≥0.5. Values where only the highest concentration exceeded 50% activity were excluded to eliminate weak or false positives. Detailed description of the methods, data and analysis methods for this dataset will be presented in a separate publication.

## C#CCOS(=O)OC1CCCCC1Oc1ccc(C(C)(C)C)cc1 (stereo not drawn) [r259]
Rat Liver [1]; rat, chronic study
  CHR_Rat_Liver_2_PreneoplasticLesion: 0
ABCB1
  CLZD_ABCB1_24: 5.227
PXR (NR1I2); HepG2
  ATG_PXRE_CIS: 6.18
ABCB11
  CLZD_ABCB11_24: 4.813
CYP1A1
  CLZD_CYP1A1_24: 4.821
CAR (NR1I3); HepG2
  ATG_PBREM_CIS: 5.854
Rat Liver [2]; rat, chronic study
  CHR_Rat_Liver_1_AnyLesion: 0
CYP1A2
  CLZD_CYP1A2_24: 5.07
CYP2B6
  CLZD_CYP2B6_24: 5.314
Rat Liver [3]; rat, chronic study
  CHR_Rat_Liver_3_NeoplasticLesion: 0

## CCCN(CC)CC1COC2(CCC(C(C)(C)C)CC2)O1 (stereo not drawn) [r286]
Rat Liver [1]; chronic study, rat liver
  CHR_Rat_Liver_2_PreneoplasticLesion: 0
PXR (NR1I2); HepG2 reporter
  ATG_PXRE_CIS: 4.886
[4]
  ATG_Ahr_CIS: 4.444
CAR (NR1I3); HepG2 reporter
  ATG_PBREM_CIS: 4.721
Rat Liver [2]; chronic study, rat liver
  CHR_Rat_Liver_1_AnyLesion: 0
CYP2B6
  CLZD_CYP2B6_24: 4.532
CYP3A4
  CLZD_CYP3A4_24: 5.192
Rat Liver [3]; chronic study, rat liver
  CHR_Rat_Liver_3_NeoplasticLesion: 0

## O=C(NC(=O)c1c(F)cccc1F)Nc1ccc(OC(F)(F)C(F)OC(F)(F)F)c(Cl)c1 (stereo not drawn) [row 223]
Mouse Liver
  CHR_Mouse_Liver_1_AnyLesion: 6
Rat Liver [1]; chronic rat study, liver
  CHR_Rat_Liver_2_PreneoplasticLesion: 0
LXRa (NR1H3)
  ATG_LXRa_TRANS: 4.523
LXRa (NR1H2)
  NCGC_LXR_Agonist: 4.536
Rat Liver [2]; chronic rat study, liver
  CHR_Rat_Liver_1_AnyLesion: 6
Rat Liver [3]; chronic rat study, liver
  CHR_Rat_Liver_3_NeoplasticLesion: 0
